According to patent US20160168224A1, “PROCESS FOR PREPARING AMPHIPHILIC PEPTIDE DERIVATIVES” (UNIVERSIDADE FEDERAL DE MINAS GERAIS - UFMG, priority 2013, published 2016):
Read-outs that look alike come from different tables or passages of the source. No end group written: not given here.

Tests used:
[1] = tested on: spontaneously hypertensive rats (SP-SHR); assay: Blood pressure after topical application in spontaneously hypertensive rats; assay type: in vivo, rat
Excerpt: To evaluate the ability of the amphiphilic peptide derivatives to exert systemic biological action after topical application, spontaneously hypertensive rats (SP-SHR) and Ang-(1-7) derivatives, as prepared in Example 1 were used.
SP-SHR rats (4-5 months-old with about 270 g body weight) were instrumented for acute blood pressure measurements using tribromoethanol anesthesia. Just after the arterial catheter implantation, the interscapular region was shaved for topical application of the formulation. Blood pressure (BP) was recorded 24 h after surgery (base line BP=173.0±6.2). BP was recorded in unanesthesized animals under resting conditions for 1 h. After that, a solution of Ang-(1-7) derivatives was applied topically (20 μl at 1 mg/ml) and BP was continuously recorded for 6 h.

[2] = in vivo; cited from earlier work
[3] = human, in vivo; cited from earlier work
dogs = conditions: subcutaneous, 10 mg/(kg day) for 28 days; cited from earlier work
rats = conditions: subcutaneous, 10 mg/(kg day) for 28 days; cited from earlier work
[4] = topical application 20 μl at 1 mg/ml

Substance | duration of BP decrease [1, 4] | start of BP decrease after application [1, 4] | decrease of BP ([1]; topical application 20 μl at 1 mg/ml, BP recorded for 6 h) | plasma half-life [2] | plasma half-life [3] | detectable toxicities (dogs) | change in BP ([1]; topical application) | detectable toxicities (rats)
Ang-(1-7) ester derivatives: Product of Example 1: Ang-(1-7) esterified with 1-octanol, mainly diester at C-terminal and Asp carboxyl groups, plus monoesters (DRVYIHP; not fully specified (residue 1, C-terminus); also: mixture: mainly diester at C-terminal and Asp carboxyl groups, plus monoesters; UniProt P01019 25-31, looked up) | up to 6 h | 90 min | up to 25 mmHg | – | – | – | – | –
Asp^1-Arg^2-Val^3-Tyr^4-Ile^5-His^6-Pro^7 [Ang-(1-7)] | – | – | – | about 10 min | ~30 min | did not lead to any detectable toxicities | did not cause significant change in BP | did not lead to any detectable toxicities
